In patent US20170233409A1, “TYPE IV SECRETION SYSTEM INHIBITORS” (priority 2016, published 2017):
Entries after “also recorded” stand apart in the source; their conditions may differ.

What was measured:
H. pylori = H. pylori viability (cellular ATP, CellTiter-Glo); format: cell-based; conditions: concentrations up to 150 μM
cag T4SS [1] = format: cell-based, H. pylori
cag T4SS [2] = assay: NF-κB luciferase reporter activation by H. pylori in AGS cells; format: cell-based
Method: Quantitation of NF-κB signaling activation. AGS cells stably transfected with an NF-κB-luciferase reporter (AGS NF-κB-luc) were cultured for 24 h and treated as described for the IL-8 induction studies. After 4 h co-culture with H. pylori, cell monolayers were washed with sterile PBS, and cell monolayer extracts were obtained by passive cell lysis. NF-κB-luciferase activity was measured by the Steady-Glo Luciferase Assay System (Promega) on a BioTek Synergy 4 plate reader, and plates were normalized to the DMSO vehicle control for each dilution series.

cag T4SS [3] = assay: CagA translocation assay (tyrosine-phosphorylated CagA immunoblot); format: cell-based, H. pylori; conditions: 150 μM; compared to vehicle-only and GKP42-treated controls
cag T4SS pili = assay: Scanning electron microscopy of cag T4SS pili; format: cell-based, H. pylori; conditions: 150 μM, SEM
Method: Scanning electron microscopy. Overnight cultures of H. pylori were diluted to OD600˜0.3 and incubated with shaking at 37° C., 5% CO2 for 1 h in the presence of vehicle or 150 μM compound and co-cultured with AGS cells on tissue culture-treated coverslips (BD Biosciences) at an MOI of 100 in the presence of 150 μM compound or vehicle. H. pylori-AGS cell co-cultures were processed and imaged.
Field emission gun scanning electron microscopy. Samples were fixed with 2.0% paraformaldehyde, 2.5% glutaraldehyde in 0.05 M sodium cacodylate buffer, and secondarily fixed with 0.1% osmium tetroxide. Sequential dehydration was performed by washing with increasing concentrations of ethanol. Samples were dried at the critical point with a Tousimis critical point dryer. Coverslips were mounted onto aluminum stubs and sputter coated with gold-palladium and imaged with an FEI Quanta 250 FEG-SEM.

H. pylori cag T4SS = format: cell-based; conditions: strain J166 pre-treated 30 min, 50 μM, 18 hours
TLR9 = target: T1, TLR9 (Homo sapiens, UniProt Q9NR96); assay: TLR9 activation by CpG ODN (control); format: cell-based; conditions: 50 μM
T1 construct: host or cells: HEK293-TLR9 reporter cell line
T1 sequence (Q9NR96 26-1032): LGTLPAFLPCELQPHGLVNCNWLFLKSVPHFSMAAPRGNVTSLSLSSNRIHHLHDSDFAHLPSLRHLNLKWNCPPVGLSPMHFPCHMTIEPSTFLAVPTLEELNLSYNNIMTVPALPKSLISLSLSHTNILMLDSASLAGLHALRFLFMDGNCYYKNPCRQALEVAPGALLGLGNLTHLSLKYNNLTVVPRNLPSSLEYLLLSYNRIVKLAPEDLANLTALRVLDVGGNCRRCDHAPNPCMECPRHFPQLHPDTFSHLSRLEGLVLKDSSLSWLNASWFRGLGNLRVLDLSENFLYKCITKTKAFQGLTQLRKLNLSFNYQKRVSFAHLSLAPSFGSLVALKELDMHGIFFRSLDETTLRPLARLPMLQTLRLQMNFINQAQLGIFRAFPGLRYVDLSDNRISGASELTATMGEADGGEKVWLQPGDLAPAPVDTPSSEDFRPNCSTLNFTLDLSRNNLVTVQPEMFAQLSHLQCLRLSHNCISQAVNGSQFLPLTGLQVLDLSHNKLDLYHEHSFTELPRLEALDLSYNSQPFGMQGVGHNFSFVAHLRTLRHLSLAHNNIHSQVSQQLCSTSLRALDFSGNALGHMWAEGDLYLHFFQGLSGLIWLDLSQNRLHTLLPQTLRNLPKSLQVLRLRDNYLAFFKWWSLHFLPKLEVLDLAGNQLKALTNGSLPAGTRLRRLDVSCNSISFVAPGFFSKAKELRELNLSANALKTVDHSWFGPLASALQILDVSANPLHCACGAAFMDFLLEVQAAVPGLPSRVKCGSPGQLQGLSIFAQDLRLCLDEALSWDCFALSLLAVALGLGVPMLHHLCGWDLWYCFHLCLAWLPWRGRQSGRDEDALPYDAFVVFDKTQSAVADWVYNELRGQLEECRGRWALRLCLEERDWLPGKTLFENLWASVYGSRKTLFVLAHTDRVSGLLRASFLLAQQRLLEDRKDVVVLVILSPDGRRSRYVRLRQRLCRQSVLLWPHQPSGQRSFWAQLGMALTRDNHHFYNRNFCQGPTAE
Method: Inhibition of T4SS-dependent activation of human TLR9 signaling by H. pylori. H. pylori strain J166 was grown in broth culture overnight, and was subsequently pre-treated in the indicated compound at a final concentration of 50 μM, or in an equivalent volume of DMSO vehicle for 30 min prior to inoculating cultured HEK293-TLR9 reporter cell lines. Co-cultures were incubated in the presence of 50 μM compound or an equivalent volume of DMSO vehicle supplemented in the cell culture media for the duration of incubation (18 hours). TLR9 activation was assayed using a colorimetric assay (Invivogen), and TLR9 activation in the presence of type IV secretion system (T4SS) inhibitor compounds is expressed as a percentage of TLR9 activation by H. pylori in the presence of vehicle. As a control, TLR9 was activated with the immunostimulatory synthetic ligand CpG oligodeoxynucleotide (CpG ODN) in the presence of DMSO or inhibitor compound at 50 μM final concentration.

[4] = test system: IncF group R1-16 conjugative T4SS; assay: DNA conjugation efficiency, R1-16; conditions: 150 μM
Method: (§1) Analysis of DNA conjugation efficiency. Overnight cultures of donor E. coli MG1655 harboring pKM101, donor E. coli MS411 harboring R1-16, and recipient E. coli MG1655 (WM1652) were grown at 37° C. with shaking at 225 rpm in LB/antibiotic, were diluted in antibiotic-free LB containing DMSO or 150 μM compound, and incubated with shaking at 37° C. to reach an OD600 of ˜0.3. Donor and recipient cells were mixed at a ratio of 1:1 on 0.22 μM pore size mixed cellulose ester filters (Millipore) on antibiotic-free LB plates for 2 h at 37° C. Filters were aseptically removed from LB plates and incubated in 100 μl antibiotic-free LB to dislodge E. coli from membranes. Serial dilutions were plated on the appropriate antibiotic (or dual antibiotic) LB plates to determine the number of donor, recipient, and transconjugant cells. Colonies were enumerated after 24 h, and conjugation efficiencies were calculated by dividing the average number of transconjugates by the average number of donors (either pKM101 or R1-16 donor cells). Conjugation efficiency in the presence of compound is expressed as a percentage of conjugation efficiency in DMSO.

[5] = test system: IncN group conjugative T4SS encoded by pKM101; assay: DNA conjugation efficiency, pKM101; conditions: 150 μM, compared to vehicle controls
Method: as §1

`COc1ccc(Cc2cc(=O)n3c(c2C2CC2)SC[C@H]3C(=O)O)c2ccccc12` [KSK85, (3R)-7-[(4-methoxynaphthalen-1-yl)methyl]-8-cyclopropyl-5-oxo-2,3-dihydro-5H-[1,3]thiazolo[3,2-a]pyridine-3-carboxylic acid] was tested, and the “viability of bacterial cells” value (H. pylori) was “did not impact viability”, the “LogEC50, attenuation of cag T4SS-dependent IL-8 secretion” value (cag T4SS [1]; 4.5 h co-culture, normalized IL-8 secretion, non-linear regression) was −1.14 and the “cag T4SS-dependent IL-8 secretion” value (cag T4SS [1]; H. pylori-gastric epithelial cell co-culture, 25-150 μM) was “significantly reduced”. For the same compound, the EC50 (cag T4SS [1]; read-out: EC50, attenuation of cag T4SS-dependent IL-8 secretion, 4.5 h co-culture, normalized IL-8 secretion, non-linear regression) was 72.2 µM, the “cag T4SS-dependent NF-κB activation” value (cag T4SS [2]; WT H. pylori, AGS NF-κB-luc cells) was “significantly reduced; also recorded: reduced compared to the inhibitory effects of C10” and the “cag T4SS-mediated NF-κB activation by H. pylori strains of different phylogeographic origins” value (cag T4SS [2]; multiple H. pylori strains) was “inhibited”. For the same compound, the “NF-κB activation by H. pylori ΔcagA mutant compared to WT strain” value (cag T4SS [2]; ΔcagA mutant) was “significantly enhanced”, the “amount of tyrosine-phosphorylated CagA in cultured gastric epithelial cells” value (cag T4SS [3]) was “significantly reduced” and the “cag T4SS pilus formation at the bacteria-host cell interface” value (cag T4SS pili) was “abrogated pilus formation in the majority of H. pylori cells”. The “T4SS-dependent activation of TLR9 by H. pylori” value (H. pylori cag T4SS) was “inhibit”, the “activation of TLR9 by CpG ODN” value (TLR9) was “not by CpG ODN” and the “DNA conjugation efficiency of the de-repressed R1-16 system” value [4] was “did not”. The “DNA conjugation efficiency of pKM101” value [5] was “reduced”.
